Data set [1] has as its system hepatitis B virus. The conditions noted are these: cited from earlier work; for HBV markers after dosing was stopped: chronic HBV patients.
The nature of data set [2]: Peak and trough plasma levels of FIAU and FAU by HPLC. It is filed as in vivo, human. The conditions noted are these: in vivo. The text has this: Additionally at Baseline, archive plasma samples were taken.
Data set [3] has as its target DNA polymerase enzyme of woodchuck hepatitis virus (Woodchuck hepatitis B virus, UniProt P03160). The conditions noted are these: read-out: concentration inhibiting DNA polymerase activity by 50 percent; cited from earlier work.
For data set [4] the following is noted: cited from earlier work.
For data set [5], the system named is HSV-1. Particulars: read-out: in vitro ED90; cited from earlier work.
Data set [6] deals with DNA polymerase enzyme of human hepatitis B virus (Hepatitis B virus genotype D subtype ayw, UniProt P03156). Particulars: read-out: concentration inhibiting DNA polymerase activity by 50 percent; cited from earlier work.
Data set [7] in a line: Stability in an acid environment. The data set is classed as physicochemical. Particulars: such as is found in the human stomach.
Data set [8] has as its system CMV. Particulars: read-out: in vitro ED90; cited from earlier work.
For data set [9] the following is noted: typical; read-out: cellular toxicity concentration (ID50); cited from earlier work.
Data set [10] relates to woodchuck hepatitis virus. The conditions noted are these: cited from earlier work.
Setting [11] is: chronic type therapy at HBV DNA suppressive doses.

Read-outs that look alike come from different tables or passages of the source. A value given as a limit tells only on which side of the number the result lay.

DNA polymerase enzyme of human hepatitis B virus, sequence (P03156 whole entry): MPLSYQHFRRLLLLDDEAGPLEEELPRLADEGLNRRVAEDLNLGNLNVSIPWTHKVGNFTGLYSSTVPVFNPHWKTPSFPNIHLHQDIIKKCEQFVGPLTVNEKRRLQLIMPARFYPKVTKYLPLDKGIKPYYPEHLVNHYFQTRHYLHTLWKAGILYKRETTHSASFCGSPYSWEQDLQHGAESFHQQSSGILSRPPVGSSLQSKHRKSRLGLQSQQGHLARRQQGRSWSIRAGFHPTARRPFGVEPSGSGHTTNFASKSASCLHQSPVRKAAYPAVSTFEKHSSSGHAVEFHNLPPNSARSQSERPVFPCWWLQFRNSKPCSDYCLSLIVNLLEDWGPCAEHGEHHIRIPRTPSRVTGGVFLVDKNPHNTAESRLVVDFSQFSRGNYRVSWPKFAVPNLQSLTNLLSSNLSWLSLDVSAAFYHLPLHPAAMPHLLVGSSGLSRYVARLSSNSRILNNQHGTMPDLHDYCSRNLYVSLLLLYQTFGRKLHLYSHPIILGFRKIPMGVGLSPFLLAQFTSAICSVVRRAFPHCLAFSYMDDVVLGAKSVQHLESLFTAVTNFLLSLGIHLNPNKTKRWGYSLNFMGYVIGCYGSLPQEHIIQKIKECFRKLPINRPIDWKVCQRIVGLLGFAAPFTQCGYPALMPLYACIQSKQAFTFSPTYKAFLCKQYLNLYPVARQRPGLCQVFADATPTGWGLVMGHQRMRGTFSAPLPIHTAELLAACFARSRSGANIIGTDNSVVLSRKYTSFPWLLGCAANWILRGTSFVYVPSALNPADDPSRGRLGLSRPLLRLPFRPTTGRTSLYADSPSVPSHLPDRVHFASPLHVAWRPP
DNA polymerase enzyme of woodchuck hepatitis virus, sequence (P03160 whole entry): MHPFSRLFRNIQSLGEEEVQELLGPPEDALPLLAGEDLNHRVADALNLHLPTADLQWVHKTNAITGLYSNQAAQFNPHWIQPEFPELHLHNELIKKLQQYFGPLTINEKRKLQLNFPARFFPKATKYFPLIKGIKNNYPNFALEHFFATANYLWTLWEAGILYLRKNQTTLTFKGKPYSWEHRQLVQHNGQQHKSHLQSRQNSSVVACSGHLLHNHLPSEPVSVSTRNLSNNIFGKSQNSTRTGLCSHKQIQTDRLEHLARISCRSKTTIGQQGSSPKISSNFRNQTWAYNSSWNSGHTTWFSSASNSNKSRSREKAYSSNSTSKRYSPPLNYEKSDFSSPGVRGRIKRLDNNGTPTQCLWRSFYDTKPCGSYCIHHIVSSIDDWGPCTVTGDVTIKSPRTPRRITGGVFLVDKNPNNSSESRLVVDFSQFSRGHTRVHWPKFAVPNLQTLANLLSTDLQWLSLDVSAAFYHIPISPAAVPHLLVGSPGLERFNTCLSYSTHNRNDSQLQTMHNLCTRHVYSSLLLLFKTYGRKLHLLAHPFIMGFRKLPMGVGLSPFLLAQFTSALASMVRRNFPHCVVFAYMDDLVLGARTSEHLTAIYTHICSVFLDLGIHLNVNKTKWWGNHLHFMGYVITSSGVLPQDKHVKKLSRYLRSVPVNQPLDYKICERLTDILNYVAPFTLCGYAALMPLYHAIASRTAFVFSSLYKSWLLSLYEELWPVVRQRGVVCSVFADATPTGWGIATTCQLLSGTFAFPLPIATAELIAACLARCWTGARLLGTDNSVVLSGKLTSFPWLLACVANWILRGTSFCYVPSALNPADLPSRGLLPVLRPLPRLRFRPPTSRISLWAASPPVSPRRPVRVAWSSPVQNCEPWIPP

In the case of interferon-alpha, in [1] (HBeAg positive chronic HBV infection, therapy for months), the “patients with major and sustained decreases in HBV DNA” value is “less than half of patients”. In addition, the “patient population in which effective” value in data set [1] (reported) was “effective only in non-HIV infected patients with baseline entry serum HBV DNA levels less than 200 pg/ml”.
As for `O=c1ccn([C@@H]2O[C@H](CO)[C@@H](O)[C@@H]2F)c(=O)[nH]1` [FAU, 1-(2'-deoxy-2'-fluoro-β-D-arabinofuranosyl)uracil], the “FAU plasma values (rarely exceeded)” value in [2] (human, po, 1 mg/kg/day) was at most 0.15 µg/mL. For the same compound, the “FAU plasma values after the initial dose” value in data set [2] is listed as “almost always undetectable”.
Turning to `Nc1ncnc2c1ncn2[C@@H]1O[C@H](CO)[C@@H](O)[C@@H]1O` [ara-A], the “HBV markers after dosing was stopped” value in data set [1] is “very rapidly rebounded to baseline levels and above”. Also, the “toxicity on continued administration” value in data set [1] (setting [11]) is “too toxic (persistent and severe neuromuscular pain)”.
Consider `Nc1nc(=O)n([C@@H]2O[C@H](CO)[C@@H](O)[C@@H]2F)cc1I` [FIAC, 1-(2'-deoxy-2'-fluoro-β-D-arabinofuranosyl)-5-iodocytosine], for which the IC50 in data set [3] and in data set [6] was 50 to 100 nM throughout. Also, the “accumulation in the plasma” value in data set [4] (month long TID dosing of FIAC) was “neither FIAC, FIAU, or their metabolites accumulated in the plasma”. For the same compound, the “absorption following oral administration” value in data set [4] (oral FIAC, patients) is recorded as “nearly completely absorbed”. Moreover, the “conversion of FIAC to FIAU” value in [4] (oral FIAC, patients) is reported as “very rapidly converted to FIAU”. Moreover, the “FIAC in plasma two hours after dosing” value in [4] (oral FIAC) is “almost never detected”. For the same compound, the figures for the EC90 in data set [5] and in data set [8] were around 50 nM and around 500 nM, respectively. Also, the “stability in an acid environment” value in data set [7] is given as “stable in an acid environment”. The CC50 in data set [9] is around 10000 nM. The “suppression of viral polymerase and DNA” value in data set [10] (FIAC 20 mg/kg-day for 7 days) was “Rapid, complete and persistent suppression”.
Regarding `Nc1ncnc2c1ncn2[C@@H]1O[C@H](COP(=O)(O)O)[C@@H](O)[C@@H]1O` [ara-AMP], the “HBV markers after dosing was stopped” value in data set [1] was “very rapidly rebounded to baseline levels and above”; in [1] (listed as Ara-AMP), “rapid rebound of DNA levels to pretreatment levels after 10-28 days of therapy is the norm”. The “toxicity on continued administration” value was “intolerably toxic” in data set [1] (setting [11]); “too toxic (persistent and severe neuromuscular pain)” in data set [1] (human, in vivo). For the same compound, the “suppression of viral DNA” value in data set [10] (similar dose given for 14 days) is reported as “suppressed viral DNA but was followed by a rapid rebound to levels above baseline”.

These data come from patent US5432165A, “Methods for the treatment of infection caused by Hepatitis B virus (HBV)” (priority 1992, dated 1995).
